Test system: MV-4-11 cells
Test: Gene expression microarray analysis (Affymetrix PrimeView) and GSEA
Format: cell-based, human
Set-up: RFU PODN (11730768_x_at) / Fold change /veh PODN (11730768_x_at) / RFU LINC00158 (11744669_a_at) / Fold change /veh LINC00158 (11744669_a_at) / RFU DUSP10 (11751237_a_at) / Fold change /veh DUSP10 (11751237_a_at) / RFU ID3 (11757404_x_at) / Fold change /veh ID3 (11757404_x_at) / RFU PLEKHG5 (11737974_s_at) / Fold change /veh PLEKHG5 (11737974_s_at) / RFU LRRC4B (11730491_at) / Fold change /veh LRRC4B (11730491_at) / RFU GIMAP4 (11747438_a_at) / Fold change /veh GIMAP4 (11747438_a_at) / RFU KRT8 (11758183_x_at) / Fold change /veh KRT8 (11758183_x_at) / RFU CNN1 (11734310_a_at) / Fold change /veh CNN1 (11734310_a_at) / RFU VPS37D (11726825_at) / Fold change /veh VPS37D (11726825_at) / RFU C10orf10 (11716522_x_at) / Fold change /veh C10orf10 (11716522_x_at) / RFU KIR2DL2 /// KIR2DL4 /// KIR2DL5A /// KIR2DL5B /// KIR2DS1 /// KIR2DS2 /// KIR2DS3 /// KIR2DS4 /// KIR3DL3 /// KIR3DL3 /// KIR3DS1 (11738374_at) / Fold change /veh KIR2DL2 /// KIR2DL4 /// KIR2DL5A /// KIR2DL5B /// KIR2DS1 /// KIR2DS2 /// KIR2DS3 /// KIR2DS4 /// KIR3DL3 /// KIR3DL3 /// KIR3DS1 (11738374_at) / RFU C1QL1 (11718748_at) / Fold change /veh C1QL1 (11718748_at) / RFU TMPRSS4 (11747572_a_at) / Fold change /veh TMPRSS4 (11747572_a_at) / RFU HAMP (11756126_x_at) / Fold change /veh HAMP (11756126_x_at) / RFU RNFT2 (11725882_a_at) / Fold change /veh RNFT2 (11725882_a_at) / RFU NR4A2 (11747474_a_at) / Fold change /veh NR4A2 (11747474_a_at) / RFU ABCC12 (11746883_a_at) / Fold change /veh ABCC12 (11746883_a_at) / RFU TMEM136 (11760407_x_at) / Fold change /veh TMEM136 (11760407_x_at) / RFU CLDN22 /// WWC2 (11732394_at) / Fold change /veh CLDN22 /// WWC2 (11732394_at) / RFU HLA-DPB1 (11760878_x_at) / Fold change /veh HLA-DPB1 (11760878_x_at) / RFU SPINT1 (11716480_a_at) / Fold change /veh SPINT1 (11716480_a_at) / RFU GAP43 (11754022_s_at) / Fold change /veh GAP43 (11754022_s_at) / RFU A4GNT (11735810_at) / Fold change /veh A4GNT (11735810_at) / RFU PRB3 (11715151_x_at) / Fold change /veh PRB3 (11715151_x_at) / RFU TUBB4B (11761932_at) / Fold change /veh TUBB4B (11761932_at) / RFU CAPN14 (11732068_a_at) / Fold change /veh CAPN14 (11732068_a_at) / RFU TMCC2 (11721928_a_at) / Fold change /veh TMCC2 (11721928_a_at) / RFU IRGQ (11745062_a_at) / Fold change /veh IRGQ (11745062_a_at) / RFU FAM174B (11720279_a_at) / Fold change /veh FAM174B (11720279_a_at) / RFU TMPRSS4 (11748680_a_at) / Fold change /veh TMPRSS4 (11748680_a_at) / RFU FAM212B (11763350_a_at) / Fold change /veh FAM212B (11763350_a_at) / RFU PLEKHG5 (11743358_a_at) / Fold change /veh PLEKHG5 (11743358_a_at) / RFU ZSCAN30 (11745921_a_at) / Fold change /veh ZSCAN30 (11745921_a_at) / RFU CMKLR1 (11741424_a_at) / Fold change /veh CMKLR1 (11741424_a_at) / RFU LOC101060620 /// MAPK8IP1 (11723275_at) / Fold change /veh LOC101060620 /// MAPK8IP1 (11723275_at) / RFU SPTSSB (11747773_x_at) / Fold change /veh SPTSSB (11747773_x_at) / RFU PRSS12 (11739890_at) / Fold change /veh PRSS12 (11739890_at) / RFU BIN1 (11741810_x_at) / Fold change /veh BIN1 (11741810_x_at) / RFU WNT11 (11732464_a_at) / Fold change /veh WNT11 (11732464_a_at) / RFU C10orf10 (11716521_a_at) / Fold change /veh C10orf10 (11716521_a_at) / RFU C5orf56 (11738089_at) / Fold change /veh C5orf56 (11738089_at) / RFU CYB561 (11721691_x_at) / Fold change /veh CYB561 (11721691_x_at) / RFU ANKRD19P (11752326_a_at) / Fold change /veh ANKRD19P (11752326_a_at) / RFU OR2T12 /// OR2T33 /// OR2T8 (11738714_s_at) / Fold change /veh OR2T12 /// OR2T33 /// OR2T8 (11738714_s_at) / RFU VCAN (11748164_a_at) / Fold change /veh VCAN (11748164_a_at) / RFU JSRP1 (11732532_at) / Fold change /veh JSRP1 (11732532_at) / RFU KRTAP10-11 (11738290_x_at) / Fold change /veh KRTAP10-11 (11738290_x_at) / RFU MYO3A (11730013_a_at) / Fold change /veh MYO3A (11730013_a_at) / RFU EBF3 (11725865_a_at) / Fold change /veh EBF3 (11725865_a_at) / RFU CAMK2N1 (11719241_x_at) / Fold change /veh CAMK2N1 (11719241_x_at) / RFU C5orf56 (11738088_a_at) / Fold change /veh C5orf56 (11738088_a_at) / RFU OLFML3 (11715873_a_at) / Fold change /veh OLFML3 (11715873_a_at) / RFU LOC100653217 /// NTM (11731650_a_at) / Fold change /veh LOC100653217 /// NTM (11731650_a_at) / RFU MAPK11 (11762145_a_at) / Fold change /veh MAPK11 (11762145_a_at) / RFU FIZ1 (11724087_x_at) / Fold change /veh FIZ1 (11724087_x_at) / RFU OASL (11726364_x_at) / Fold change /veh OASL (11726364_x_at) / RFU SOX15 (11748057_x_at) / Fold change /veh SOX15 (11748057_x_at) / RFU CD79A (11719716_a_at) / Fold change /veh CD79A (11719716_a_at) / RFU HIST1H1D (11736915_at) / Fold change /veh HIST1H1D (11736915_at) / RFU CASKIN2 (11723855_a_at) / Fold change /veh CASKIN2 (11723855_a_at) / RFU LOC730098 (11760151_x_at) / Fold change /veh LOC730098 (11760151_x_at) / RFU OR4N2 (11742367_at) / Fold change /veh OR4N2 (11742367_at) / RFU PRRT2 (11749266_a_at) / Fold change /veh PRRT2 (11749266_a_at) / RFU SNX32 (11753110_a_at) / Fold change /veh SNX32 (11753110_a_at) / RFU CDHR5 (11726645_a_at) / Fold change /veh CDHR5 (11726645_a_at) / RFU RCAN1 (11760418_a_at) / Fold change /veh RCAN1 (11760418_a_at) / RFU FAM167A (11723789_a_at) / Fold change /veh FAM167A (11723789_a_at) / RFU FAM26E (11764081_at) / Fold change /veh FAM26E (11764081_at) / RFU ISYNA1 (11749810_s_at) / Fold change /veh ISYNA1 (11749810_s_at) / RFU ACY1 (11761880_at) / Fold change /veh ACY1 (11761880_at) / RFU 11764098_at / Fold change /veh 11764098_at / RFU SAMD14 (11745864_x_at) / Fold change /veh SAMD14 (11745864_x_at) / RFU NPB (11741838_a_at) / Fold change /veh NPB (11741838_a_at) / RFU TMPRSS6 (11731388_a_at) / Fold change /veh TMPRSS6 (11731388_a_at) / RFU KRTAP10-2 (11738614_at) / Fold change /veh KRTAP10-2 (11738614_at) / RFU ARHGAP8 /// PRR5-ARHGAP8 (11727945_x_at) / Fold change /veh ARHGAP8 /// PRR5-ARHGAP8 (11727945_x_at) / RFU KRTAP5-7 /// NADSYN1 (11734609_at) / Fold change /veh KRTAP5-7 /// NADSYN1 (11734609_at) / RFU RASL12 (11751679_a_at) / Fold change /veh RASL12 (11751679_a_at) / RFU CDKN2B (11736163_a_at) / Fold change /veh CDKN2B (11736163_a_at) / RFU PRF1 (11729649_at) / Fold change /veh PRF1 (11729649_at) / RFU, ZNF638 /// ZNF638-IT1 / Fold change vs veh, ZNF638 /// ZNF638-IT1 / RFU, PANK3 / Fold change vs veh, PANK3 / RFU, SH3YL1 / Fold change vs veh, SH3YL1 / RFU, ZEB2 / Fold change vs veh, ZEB2 / RFU, NRIP1 / Fold change vs veh, NRIP1 / RFU, PTTG1IP / Fold change vs veh, PTTG1IP / RFU, CAPN2 / Fold change vs veh, CAPN2 / RFU, MED14 / Fold change vs veh, MED14 / RFU, SNORA58 / Fold change vs veh, SNORA58 / RFU, C1orf63 / Fold change vs veh, C1orf63 / RFU, LRRFIP1 / Fold change vs veh, LRRFIP1 / RFU, NDUFAF7 / Fold change vs veh, NDUFAF7 / RFU, SLC12A2 / Fold change vs veh, SLC12A2 / RFU, IBTK / Fold change vs veh, IBTK / RFU, ESF1 / Fold change vs veh, ESF1 / Fold change vs veh, TMEM50B / RFU, TAOK1 / Fold change vs veh, TAOK1 / RFU, ACBD3 / Fold change vs veh, ACBD3 / RFU, TMA16 / Fold change vs veh, TMA16 / RFU, RWDD3 / Fold change vs veh, RWDD3 / RFU, BCAT1 / Fold change vs veh, BCAT1 / RFU, EDEM3 / Fold change vs veh, EDEM3 / RFU, TMEM33 / Fold change vs veh, TMEM33 / RFU, WDR75 / Fold change vs veh, WDR75 / RFU, AHCTF1 / Fold change vs veh, AHCTF1 / RFU, TFRC / Fold change vs veh, TFRC / RFU, ZDHHC17 / Fold change vs veh, ZDHHC17 / RFU, NOM1 / Fold change vs veh, NOM1 / RFU, ARL8B / Fold change vs veh, ARL8B / RFU, ZBTB11 / Fold change vs veh, ZBTB11 / RFU, TAMM41 / Fold change vs veh, TAMM41 / RFU, KIAA1704 /// LOC100996395 / Fold change vs veh, KIAA1704 /// LOC100996395 / RFU, ING1 / Fold change vs veh, ING1 / RFU, TRMT61B / Fold change vs veh, TRMT61B / RFU, FUBP3 / Fold change vs veh, FUBP3 / RFU, TP53 / Fold change vs veh, TP53 / RFU, TNKS2 / Fold change vs veh, TNKS2 / RFU, ZFP14 / Fold change vs veh, ZFP14 / RFU, ACTR2 / Fold change vs veh, ACTR2 / RFU, PPP3R1 / Fold change vs veh, PPP3R1 / RFU, PIK3R1 / Fold change vs veh, PIK3R1 / RFU, HNRNPA1 / Fold change vs veh, HNRNPA1 / RFU, RNF170 / Fold change vs veh, RNF170 / RFU, ZNF28 / Fold change vs veh, ZNF28 / RFU, RNGTT / Fold change vs veh, RNGTT / RFU, OGT / Fold change vs veh, OGT / RFU, BRD1 / Fold change vs veh, BRD1 / RFU, MARS / Fold change vs veh, MARS / RFU, ZNF655 / Fold change vs veh, ZNF655 / RFU, FAHD1 / Fold change vs veh, FAHD1 / RFU, BDP1 / Fold change vs veh, BDP1 / RFU, LRRCC1 / Fold change vs veh, LRRCC1 / RFU, ARID1A / Fold change vs veh, ARID1A / RFU, ZNF146 / Fold change vs veh, ZNF146 / RFU, ZNF330 / Fold change vs veh, ZNF330 / RFU, GPN3 / Fold change vs veh, GPN3 / RFU, C9orf123 / Fold change vs veh, C9orf123 / RFU, N4BP2L2 / Fold change vs veh, N4BP2L2 / RFU, ARFIP1 / Fold change vs veh, ARFIP1 / RFU, FAM179B / Fold change vs veh, FAM179B / RFU, BCL10 / Fold change vs veh, BCL10 / RFU, UHRF1BP1L / Fold change vs veh, UHRF1BP1L / RFU, BET1 / Fold change vs veh, BET1 / RFU, CNOT2 / Fold change vs veh, CNOT2 / RFU, ZNF268 / Fold change vs veh, ZNF268 / Fold change vs veh, ZNF507 / RFU, DGCR2 / Fold change vs veh, DGCR2 / RFU, WDSUB1 / Fold change vs veh, WDSUB1 / Fold change vs veh, HSP90B1 /// MIR3652 / RFU, ADSS / Fold change vs veh, ADSS / RFU, GK / Fold change vs veh, GK / RFU, ZNF148 / Fold change vs veh, ZNF148 / RFU, TAF9 / Fold change vs veh, TAF9 / RFU, SLC1A5 / Fold change vs veh, SLC1A5 / RFU, SLMO2 / Fold change vs veh, SLMO2 / RFU, ABCC4 / Fold change vs veh, ABCC4 / RFU, LOC101060439 /// RAP1B / Fold change vs veh, LOC101060439 /// RAP1B / RFU, RFX7 / Fold change vs veh, RFX7 / RFU, GTPBP10 / Fold change vs veh, GTPBP10 / RFU, CNEP1R1 / Fold change vs veh, CNEP1R1 / RFU, BIVM-ERCC5 /// ERCC5 / Fold change vs veh, BIVM-ERCC5 /// ERCC5 / RFU, ILF3 / Fold change vs veh, ILF3 / RFU 11762660_at / Fold change /veh 11762660_at / RFU VCAN (11757783_s_at) / Fold change /veh VCAN (11757783_s_at) / RFU DDX43 (11728927_at) / Fold change /veh DDX43 (11728927_at) / RFU KRT8 (11758188_x_at) / Fold change /veh KRT8 (11758188_x_at) / RFU NKD1 (11759106_at) / Fold change /veh NKD1 (11759106_at) / RFU SRD5A1 (11742802_a_at) / Fold change /veh SRD5A1 (11742802_a_at) / RFU TPSAB1 /// TPSB2 (11721975_s_at) / Fold change /veh TPSAB1 /// TPSB2 (11721975_s_at) / RFU GSTM3 (11746129_a_at) / Fold change /veh GSTM3 (11746129_a_at) / RFU IL23R (11737362_x_at) / Fold change /veh IL23R (11737362_x_at) / RFU TMEM51 (11727254_a_at) / Fold change /veh TMEM51 (11727254_a_at) / RFU PIWIL2 (11732686_x_at) / Fold change /veh PIWIL2 (11732686_x_at) / RFU ORM1 (11744905_x_at) / Fold change /veh ORM1 (11744905_x_at) / RFU CCDC152 (11743942_at) / Fold change /veh CCDC152 (11743942_at) / RFU ECM1 (11717891_a_at) / Fold change /veh ECM1 (11717891_a_at) / RFU IL23R (11748794_a_at) / Fold change /veh IL23R (11748794_a_at) / RFU TNFAIP8L3 (11732012_x_at) / Fold change /veh TNFAIP8L3 (11732012_x_at) / RFU MBOAT4 (11741988_at) / Fold change /veh MBOAT4 (11741988_at) / RFU 11764193_at / Fold change /veh 11764193_at / RFU TMEM53 (11763286_at) / Fold change /veh TMEM53 (11763286_at) / RFU MAGEB2 (11727129_at) / Fold change /veh MAGEB2 (11727129_at) / RFU TMEM200A (11744735_a_at) / Fold change /veh TMEM200A (11744735_a_at) / RFU CCDC152 (11751479_a_at) / Fold change /veh CCDC152 (11751479_a_at) / RFU FAM211A (11726209_a_at) / Fold change /veh FAM211A (11726209_a_at) / RFU RGS16 (11746705_a_at) / Fold change /veh RGS16 (11746705_a_at) / RFU VCAN (11755009_s_at) / Fold change /veh VCAN (11755009_s_at) / RFU RHOB (11743442_s_at) / Fold change /veh RHOB (11743442_s_at) / RFU RGS16 (11720943_a_at) / Fold change /veh RGS16 (11720943_a_at) / RFU RGS16 (11720944_at) / Fold change /veh RGS16 (11720944_at) / RFU, VPS4B / Fold change vs veh, VPS4B / RFU, CREB1 / Fold change vs veh, CREB1 / RFU, DNAJC13 / Fold change vs veh, DNAJC13 / RFU, GNAQ / Fold change vs veh, GNAQ / RFU, CDK5R1 / Fold change vs veh, CDK5R1 / RFU, ZRANB3 / Fold change vs veh, ZRANB3 / RFU, CUL4A / Fold change vs veh, CUL4A / RFU, CCNY / Fold change vs veh, CCNY / RFU, UFL1 / Fold change vs veh, UFL1 / RFU, COG3 / Fold change vs veh, COG3 / RFU, DIAPH2 / Fold change vs veh, DIAPH2 / RFU, SKA2 / Fold change vs veh, SKA2 / RFU, AFF3 / Fold change vs veh, AFF3 / RFU, LMF1 / Fold change vs veh, LMF1 / RFU, IPO11 / Fold change vs veh, IPO11 / RFU, DFFB / Fold change vs veh, DFFB / RFU, FOXP1 / Fold change vs veh, FOXP1 / RFU, CARD8 / Fold change vs veh, CARD8 / RFU, STRN3 / Fold change vs veh, STRN3 / RFU, ADK / Fold change vs veh, ADK / RFU, RASSF2 / Fold change vs veh, RASSF2 / RFU, WIPF1 / Fold change vs veh, WIPF1 / RFU, LARP1B / Fold change vs veh, LARP1B / RFU, RASA1 / Fold change vs veh, RASA1 / RFU, RB1 / Fold change vs veh, RB1 / RFU, PPFIA1 / Fold change vs veh, PPFIA1 / RFU, MAT2A / Fold change vs veh, MAT2A / RFU, CCT5 / Fold change vs veh, CCT5 / RFU, WDR92 / Fold change vs veh, WDR92 / RFU, CUX1 / Fold change vs veh, CUX1 / RFU, TTC7A / Fold change vs veh, TTC7A / RFU, TMEM135 / Fold change vs veh, TMEM135 / RFU, DEPTOR / Fold change vs veh, DEPTOR / RFU, CPM / Fold change vs veh, CPM / RFU, DNAJB6 / Fold change vs veh, DNAJB6 / RFU, CACNA2D3 / Fold change vs veh, CACNA2D3 / RFU, DTX4 / Fold change vs veh, DTX4 / RFU, TFCP2 / Fold change vs veh, TFCP2 / RFU, GMCL1 /// GMCL1P1 / Fold change vs veh, GMCL1 /// GMCL1P1 / RFU, AEBP2 / Fold change vs veh, AEBP2 / RFU, SNHG1 /// SNORD22 /// SNORD25 /// SNORD26 /// SNORD27 /// SNORD28 /// SNORD29 /// SNORD31 / Fold change vs veh, SNHG1 /// SNORD22 /// SNORD25 /// SNORD26 /// SNORD27 /// SNORD28 /// SNORD29 /// SNORD31 / Fold change (Aza/veh), C12orf56 (ProbeSet 11735607_a_at) / Fold change (ACY-1035/veh), C12orf56 (ProbeSet 11735607_a_at) / Fold change (Aza/veh), FGFR1OP (ProbeSet 11751329_s_at) / Fold change (ACY-1035/veh), FGFR1OP (ProbeSet 11751329_s_at) / Fold change (Aza/veh), VPS36 (ProbeSet 11739960_a_at) / Fold change (ACY-1035/veh), VPS36 (ProbeSet 11739960_a_at) / RFU SYPL1 (11715823_x_at) / Fold change /veh SYPL1 (11715823_x_at) / RFU IGFBP7 (11715501_s_at) / Fold change /veh IGFBP7 (11715501_s_at) / RFU REEP3 (11722064_at) / Fold change /veh REEP3 (11722064_at) / RFU IGLL1 (11728026_x_at) / Fold change /veh IGLL1 (11728026_x_at): dose or concentration left out as unconfirmed
Conditions: MV-4-11 cells, 48 hours

Nc1ncn([C@@H]2O[C@H](CO)[C@@H](O)[C@H]2O)c(=O)n1 [azacitidine]
RFU TMPRSS6 (11731388_a_at): 68.82 RFU
